Entries after “also recorded” stand apart in the source; their conditions may differ. Like-named read-outs stand apart in the source and are kept apart here.
Columns and labels:
EphA5 = experiment: Binding selectivity of phage clones isolated on EphA5
Method: (§1) Alternatively, peptides and phage were co-incubated together.
(§2) In this example additional phage panning experiments were performed to identify peptides that bind to EphA5 and EphA7 (FIG. 18A). EphA5 and EphA7 are two EphA receptors that are closely related to EphA4 but are differentially expressed in the developing and adult nervous system (Ellis, J. et al. 1995 Mechanisms of Development 52:319-341; Mori, T. et al 1995 Brain Res Mol Brain Res 34:154-160; Olivieri, G. & Miescher, G. C. 1999 J Histochem Cytochem 47:855-861; Zhang, J. H. et al 1997 Brain Res Mol Brain Res 47:202-214). Three different peptide sequences that bind each receptor were identified.

EphA7 = experiment: Binding selectivity of phage clones isolated on EphA7
Method: as §1, §2

EphB4 [1] = experiment: Binding specificity of synthetic peptides; conditions: immobilized synthetic peptide
Text: (§3) Bound Eph receptors were detected with anti-human Fc antibody conjugated to alkaline phosphatase (AP) (Promega, Madison, Wis.). […] Substrates were 2,2′-azino-bis(3-ethylbenzthiazoline-6-sulfonic acid) for horseradish peroxidase and p-nitrophenyl phosphate for AP.

EphB4 [2] = experiment: Binding specificity of phage clones on Eph receptor-coated plates; conditions: phage clones displaying the peptides
Text: (§4) Phage binding to Eph receptor-coated plates was quantified using an anti-phage antibody conjugated to horseradish peroxidase (M13 phage detection kit, Amersham Pharmacia Biotech., Piscataway, N.J.).

EphA2 [3] = target: T1, EphA2 (Mus musculus, UniProt Q03145); experiment: Immobilized biotinylated synthetic peptide capturing Eph receptor Fc (ELISA); assay type: binding; conditions: biotinylated peptide on streptavidin-coated wells
T1 construct: purchased R&D Systems
Target sequence in this assay (Q03145 with tags, fused parts or gaps limits assumed): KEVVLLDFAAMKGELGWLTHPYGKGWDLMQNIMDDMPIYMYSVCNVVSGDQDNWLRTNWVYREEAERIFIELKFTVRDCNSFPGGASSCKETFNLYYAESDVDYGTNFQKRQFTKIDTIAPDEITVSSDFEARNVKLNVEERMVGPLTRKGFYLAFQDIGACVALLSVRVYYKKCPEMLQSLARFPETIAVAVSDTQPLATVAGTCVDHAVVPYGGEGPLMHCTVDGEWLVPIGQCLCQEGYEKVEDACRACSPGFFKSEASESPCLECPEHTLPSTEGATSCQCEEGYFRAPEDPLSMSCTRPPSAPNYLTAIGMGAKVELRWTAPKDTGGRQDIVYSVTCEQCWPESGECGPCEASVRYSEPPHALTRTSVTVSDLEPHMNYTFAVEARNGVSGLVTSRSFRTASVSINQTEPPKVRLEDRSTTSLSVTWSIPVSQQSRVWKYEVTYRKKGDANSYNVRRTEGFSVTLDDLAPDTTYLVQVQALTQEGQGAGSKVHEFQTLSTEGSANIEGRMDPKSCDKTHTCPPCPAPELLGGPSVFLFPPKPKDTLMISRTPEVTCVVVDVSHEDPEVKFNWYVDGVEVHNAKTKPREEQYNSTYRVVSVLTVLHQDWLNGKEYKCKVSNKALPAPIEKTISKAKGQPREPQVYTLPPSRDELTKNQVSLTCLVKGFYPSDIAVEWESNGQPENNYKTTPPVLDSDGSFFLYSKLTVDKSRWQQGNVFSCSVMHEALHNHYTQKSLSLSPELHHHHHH
Text: as §3

EphA receptors = experiment: as above; assay type: binding; conditions: Fc fusion proteins of EphA receptors
Text: as §3

EphA2 [4] = target: T1, EphA2; experiment: Ephrin-AP binding to Eph receptor-coated wells in presence of peptide; conditions: ephrin-A5-AP, ephrin-A6-AP
Target sequence in this assay (Q03145 with tags, fused parts or gaps limits assumed): as above
Method: Ephrin binding to Eph receptor-coated plates was quantified using alkaline phosphatase (AP) fusion proteins of ephrin-A5 and ephrin-A6 (plasmids encoding these AP-fusions are described above). Diluted cell culture supernatants containing ephrin-A5-AP and ephrin-A6-AP were co-incubated with peptides in microtiter wells coated with EphA2 Fc or EphA4 Fc. Ephrins remaining bound after washing were detected by measuring AP activity.

EphA2 [5] = target: T1, EphA2; experiment: Peptide competition with phage clones on immobilized EphA2 Fc; assay type: binding
Target sequence in this assay (Q03145 26-538 limits assumed): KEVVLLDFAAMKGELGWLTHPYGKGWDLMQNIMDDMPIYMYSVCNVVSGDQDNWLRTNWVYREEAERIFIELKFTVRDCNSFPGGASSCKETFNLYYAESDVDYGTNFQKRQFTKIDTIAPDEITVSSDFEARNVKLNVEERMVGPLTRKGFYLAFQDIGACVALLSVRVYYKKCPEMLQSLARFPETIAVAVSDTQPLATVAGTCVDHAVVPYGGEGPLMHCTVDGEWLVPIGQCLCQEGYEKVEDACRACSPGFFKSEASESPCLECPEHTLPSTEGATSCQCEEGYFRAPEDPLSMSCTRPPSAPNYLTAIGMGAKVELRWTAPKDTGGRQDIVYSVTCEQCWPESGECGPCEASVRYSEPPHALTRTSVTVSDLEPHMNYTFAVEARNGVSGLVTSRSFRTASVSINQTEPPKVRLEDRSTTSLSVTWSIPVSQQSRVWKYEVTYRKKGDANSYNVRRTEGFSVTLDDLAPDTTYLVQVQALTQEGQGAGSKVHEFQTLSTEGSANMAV
Method: A histidine-tagged mouse EphA2 Fc fusion protein (R&D Systems, Minneapolis, Minn.) was incubated overnight at 4° C. in nickel-nitrilotriacetic acid (Ni-NTA)-coated ELISA plates at concentrations of 1-10 μg/ml in Tris-buffered saline (TBS) (150 mM NaCl, 50 mM Tris-HCl, pH 7.5). Wells were blocked with 0.5% bovine serum albumin (BSA) in TBS, and rinsed with binding buffer (TBS, 1 mM CaCl2, 0.1% Tween 20).
For peptide competition assays with phage clones, Ni-NTA microtiter wells coated with EphA2 Fc were incubated for 1 hour at room temperature with phage clones diluted between 1:600 and 1:9,000 in binding buffer (100 μl/well). Unbound phage were washed away and competing peptides were added for 1 hour. Alternatively, peptides and phage were co-incubated together.

MAP kinase = MAP kinase phosphorylation in HUVE cells (immunoblot); assay type: cell-based, human
Text: Cell lysates were used to immunoprecipitate EphA2 as described above or probed by immunoblotting with anti-phospho-p44/p42 MAPK antibody (Cell Signaling Technology, Beverly, Mass.) followed by an anti-mouse IgG peroxidase-conjugated antibody (Arnersham) and re-probed with an anti-ERK2 antibody (Santa Cruz Biotechnology, Santa Cruz, Calif.) followed by a secondary anti-rabbit IgG peroxidase-conjugated antibody (Amersham). Erk2 (p42 MAP kinase) is the major phosphorylated form present. EphA2 was immunoprecipitated (IP) and probed by immunoblotting with anti-phosphotyrosine (PTyr) or anti-EphA2 antibodies.

EphB receptors = experiment: Immobilized biotinylated synthetic peptide capturing Eph receptor Fc (ELISA); assay type: binding
Text: as §3

EphA4 [6] = target: T2, EphA4 (Homo sapiens, UniProt P54764); experiment: Ephrin-AP binding to Eph receptor-coated wells in presence of peptide; conditions: for Antagonism of ephrin-A5 binding to EphA4: ephrin-A5 AP
T2 construct: immobilized EphA4 receptor extracellular domain fused to a human Fc region
Method: Diluted cell culture supernatants containing ephrin-A5-AP and ephrin-A6-AP were co-incubated with peptides in microtiter wells coated with EphA2 Fc or EphA4 Fc. Ephrins remaining bound after washing were detected by measuring AP activity.

EphA4 [7] = target: T2, EphA4; experiment: Binding selectivity of phage clones isolated on EphA4; conditions: compared to other EphA or EphB4 receptors
Text: as §4
In this example phage display was used to identify peptides that bind to an EphA4 receptor. An M13 phage library displaying random 12-mer peptides was panned on the immobilized EphA4 receptor extracellular domain fused to a human Fc region (FIG. 12A). The phage clones remaining bound to EphA4 were eluted with a low pH solution and amplified.

EphA4 [8] = target: T3, EphA4 (Mus musculus, UniProt Q03137); experiment: Ephrin-A3 Fc induced EphA4 tyrosine phosphorylation in hippocampal slices; assay type: cell-based; conditions: micromolar peptide
T3 construct: antagonize ephrin-A3-induced tyrosine phosphorylation of endogenous EphA4; from tissue; host or cells: mouse hippocampal slices

EphA4 [9] = target: T2, EphA4; experiment: Binding specificity of synthetic peptides; conditions: compared to other EphA and EphB receptors
Text: as §3

neural crest cells = experiment: Neural crest cell migration assay in chick trunk explants; assay type: cell-based; conditions: 24 hours, 13 μM KYL peptide or 10 μg/ml EphA4-Fc
Method: In this example to address whether the EphA4-binding peptides can inhibit endogenous ephrin-EphA4 physiological function, a neural crest cell migration assay (McLennan, R. & Krull, C. E. 2002 Gene Expr 10:295-305) was utilized. […] The migration of neural crest cells was determined by staining for HNK-1 for neural crest cells and ephrin-B1 to label the caudal sclerotome. […] Neural crest cells migrated properly into the rostral sclerotome in explants treated with control Fc.

T2 sequence (P54764 20-547 limits assumed, species assumed): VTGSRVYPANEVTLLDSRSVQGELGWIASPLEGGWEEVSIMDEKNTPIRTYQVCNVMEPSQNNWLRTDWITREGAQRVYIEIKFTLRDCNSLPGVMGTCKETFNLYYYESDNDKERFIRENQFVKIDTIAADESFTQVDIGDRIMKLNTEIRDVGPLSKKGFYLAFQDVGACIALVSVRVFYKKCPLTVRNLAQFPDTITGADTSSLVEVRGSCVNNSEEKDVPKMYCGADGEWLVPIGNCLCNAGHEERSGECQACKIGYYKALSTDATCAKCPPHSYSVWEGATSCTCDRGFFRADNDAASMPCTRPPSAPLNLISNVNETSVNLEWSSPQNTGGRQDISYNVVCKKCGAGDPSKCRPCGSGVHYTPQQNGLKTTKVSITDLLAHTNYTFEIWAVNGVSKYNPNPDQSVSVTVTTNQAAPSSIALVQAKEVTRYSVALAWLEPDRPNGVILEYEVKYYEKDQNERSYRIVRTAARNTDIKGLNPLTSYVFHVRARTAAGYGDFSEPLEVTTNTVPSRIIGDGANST
T3 sequence (Q03137 20-986): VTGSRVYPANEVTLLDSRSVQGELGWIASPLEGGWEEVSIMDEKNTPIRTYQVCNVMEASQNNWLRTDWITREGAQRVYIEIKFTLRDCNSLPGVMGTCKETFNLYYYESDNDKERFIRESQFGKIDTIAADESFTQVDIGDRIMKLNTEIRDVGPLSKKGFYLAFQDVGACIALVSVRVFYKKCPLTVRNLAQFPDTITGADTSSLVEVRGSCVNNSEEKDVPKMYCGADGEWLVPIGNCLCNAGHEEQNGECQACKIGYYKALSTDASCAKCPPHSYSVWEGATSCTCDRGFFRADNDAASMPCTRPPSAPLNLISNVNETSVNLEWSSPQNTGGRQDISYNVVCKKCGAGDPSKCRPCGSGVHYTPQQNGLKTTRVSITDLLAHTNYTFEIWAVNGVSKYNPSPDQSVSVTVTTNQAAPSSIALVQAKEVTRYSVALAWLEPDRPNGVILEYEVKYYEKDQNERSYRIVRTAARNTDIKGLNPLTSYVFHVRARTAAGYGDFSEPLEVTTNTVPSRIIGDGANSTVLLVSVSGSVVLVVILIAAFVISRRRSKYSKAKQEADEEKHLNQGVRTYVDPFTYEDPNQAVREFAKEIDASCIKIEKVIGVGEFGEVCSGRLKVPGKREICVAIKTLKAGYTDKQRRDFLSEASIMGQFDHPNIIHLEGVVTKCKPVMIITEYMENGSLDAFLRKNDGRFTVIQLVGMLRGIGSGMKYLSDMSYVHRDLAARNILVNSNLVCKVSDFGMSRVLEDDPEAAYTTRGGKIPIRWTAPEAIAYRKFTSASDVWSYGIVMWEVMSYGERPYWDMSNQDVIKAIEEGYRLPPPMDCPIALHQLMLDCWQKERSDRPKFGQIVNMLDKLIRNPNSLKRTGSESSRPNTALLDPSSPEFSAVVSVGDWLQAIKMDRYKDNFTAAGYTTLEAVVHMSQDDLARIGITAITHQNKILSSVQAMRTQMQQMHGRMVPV

## WDCNGPYCHWLG (WDC peptide)
EphA5
  Binding selectivity of peptides isolated on EphA5: selective binding to this receptor
EphA5; listed as WDC
  Binding selectivity of peptides isolated on EphA5: selectively bind to EphA5

## WTFPVLWDDKHP (WTF peptide)
EphA5
  Binding selectivity of peptides isolated on EphA5: also binds to EphA6
EphA5; listed as WTF
  Binding selectivity of peptides isolated on EphA5: binds to both EphA5 and EphA6

## WASHAPYWPHPP (EphA7-binding peptide)
EphA7
  Binding to further EphA receptors of EphA7-binding peptides: also binds to EphA3

## SVSVGMKPSPRP (SVS peptide)
EphA7
  Binding to further EphA receptors of EphA7-binding peptides: also binds to EphA3 and EphA6

## DALNDWLLFRPW (DAL peptide)
EphB4 [1]
  EphB4 bound compared to other EphB family receptors: four-fold
EphB4 [2]
  Binding of phage clones to EphB4 Fc: bound to EphB4 Fc

## KHLPFYPHPTSP (EphA7-binding peptide)
EphA7
  Binding to further EphA receptors of EphA7-binding peptides: also binds to EphA3, EphA5, and EphA6

## A3 peptide: Twelve-mer synthetic peptide corresponding to the G-H loop of ephrin-A3
EphA2 [3]
  Binding of immobilized synthetic peptide to EphA2 Fc: bind EphA2, albeit more weakly than the YSA peptide
EphA receptors
  Binding of immobilized synthetic peptide to EphA receptors (other than or including EphA2): bind promiscuously to all EphA receptors
EphA2 [4]
  Inhibition of ephrin binding to immobilized EphA2: did not compete with ephrin-A5 for binding to EphA2
EphA2 [5]
  Competition of synthetic peptide with phage binding to immobilized EphA2: did not inhibit phage binding

## SGHQLLLNKMPN (SGH peptide)
EphB4 [2]
  Binding of phage clones to EphB4 Fc: bound to EphB4 Fc

## IPWTQHMAMSPM (IPW peptide)
EphB4 [2]
  Binding of phage clones to EphB4 Fc: bound to EphB4 Fc

## CSCC[C@H](NC(=O)[C@H](CCSC)NC(=O)[C@@H]1CCCN1C(=O)[C@@H](NC(=O)[C@H](CO)NC(=O)[C@H](CC(=O)O)NC(=O)[C@@H]1CCCN1C(=O)[C@H](Cc1ccc(O)cc1)NC(=O)[C@H](C)NC(=O)[C@H](CO)NC(=O)[C@@H](N)Cc1ccc(O)cc1)C(C)C)C(=O)N[C@@H](CO)C(=O)O [YSA]
EphA2 [3]
  Binding of immobilized synthetic peptide to EphA2 Fc: bound to EphA2
MAP kinase
  MAP kinase activation: activates a previously described Eph2A signaling pathway that suppresses MAP kinase activation
EphB receptors
  Binding of synthetic peptide to receptors of the EphB family: lack the ability to bind to receptors of the EphB family
EphA4 [6]; ephrin-A5-AP, ephrin-A6-AP
  Inhibition of A-ephrin binding to immobilized EphA4 by EphA2-binding peptides: not EphA4
EphA receptors
  Binding of immobilized synthetic peptide to EphA receptors (other than or including EphA2): not to other EphA receptors
EphA2 [4]
  Inhibition of ephrin binding to immobilized EphA2: inhibit, in a concentration dependent manner
EphA2 [5]
  Competition of synthetic peptide with phage binding to immobilized EphA2: competes with SWL phage

## A5 peptide: Twelve-mer synthetic peptide corresponding to the A-A′ β-strand of ephrin-A5
EphA2 [3]
  Binding of immobilized synthetic peptide to EphA2 Fc: bind EphA2, albeit more weakly than the YSA peptide
EphA receptors
  Binding of immobilized synthetic peptide to EphA receptors (other than or including EphA2): bind promiscuously to all EphA receptors
EphA2 [4]
  Inhibition of ephrin binding to immobilized EphA2: enhanced both phage and ephrin-A5 binding to EphA2
EphA2 [5]
  Competition of synthetic peptide with phage binding to immobilized EphA2: enhanced both phage and ephrin-A5 binding to EphA2

## VTMEAINLAFPG (VTM peptide)
EphA4 [6]
  Antagonism of ephrin-A5 binding to EphA4: antagonize ephrin-A5 binding to EphA4 in a concentration-dependent manner
EphA4 [6]; inhibition curves at different ephrin concentrations
  Mode of inhibition of ephrin binding: competitively inhibits ephrin binding
EphA4 [7]
  Binding preference of phage clones for EphA4: preferential binding to EphA4
EphA4 [8]
  Ephrin-A3-induced tyrosine phosphorylation (activation) of endogenous EphA4: antagonize ephrin-A3 induced activation of endogenous EphA4

## VADRYAVYWNSSNPR (extended A5 peptide)
EphA2 [3]
  Binding of immobilized synthetic peptide to EphA2 Fc: exhibits a similar weak binding

## NHWLDTLFPMHM (EphA4-binding peptide)
EphA4 [7]
  Binding preference of phage clones for EphA4: preferential binding to EphA4

## SLRDTYMRAKVL (SLR peptide)
EphA5
  Binding selectivity of peptides isolated on EphA5: selective binding to this receptor
EphA5; listed as SLR
  Binding selectivity of peptides isolated on EphA5: selectively bind to EphA5

## KYLPYWPVLSSL (KYL peptide)
EphA4 [6]
  Antagonism of ephrin-A5 binding to EphA4: antagonize ephrin-A5 binding to EphA4 in a concentration-dependent manner
EphA4 [6]; ephrin-A5 AP binding to EphA4
  Peptide concentration that almost completely inhibited ephrin binding: 1 µM
EphA4 [6]; peptide 50 μM
  Selectivity of block of ephrin-A5 AP binding to EphA4 compared to other EphA receptors: preferentially
EphA4 [9]
  Selectivity of synthetic peptide for EphA4: exhibited some binding to other EphA and EphB receptors
EphA4 [7]
  Binding preference of phage clones for EphA4: preferential binding to EphA4
Neural crest cells
  Migration of neural crest cells: ectopic migration of neural crest cells into the caudal half-sclerotome
EphA4 [8]
  Ephrin-A3-induced tyrosine phosphorylation (activation) of endogenous EphA4: blocked EphA4 tyrosine phosphorylation at lower concentrations than the APY and VTM peptides; also recorded: antagonize ephrin-A3 induced activation of endogenous EphA4
